Laboratory results published in patent publication US9745339B2 (GRAFFINITY PHARMACEUTICALS GMBH, priority 2012, dated 2017).

How the values were obtained:
[1] = target: T1, Bevacizumab (Homo sapiens, UniProt P01857); test: Microtiter plate chromatography of resins: binding and elution of Bevacizumab; details: for Bevacizumab Bound: fraction of injected protein bound, 0.5 mg/ml IgG in PBS pH 7.3, ligand immobilized on SEPHAROSE 4 FF; for Bevacizumab Yield: mass eluted (glycine pH 2.5) / mass injected
T1 construct: 0.5 mg/ml IgG in PBS pH 7.3; ligand immobilized on SEPHAR; Bevacizumab Yield; other: mass eluted (glycine pH 2.5) / mass injected; kd (dissociation constant, Langmuir isotherm); other: Bevacizumab 0.05-5 mg/ml in PBS pH 7.3, 25° C., at least 3 h; qm (maximum capacity); other: mg Bevacizumab per ml of resin; Langmuir isotherm; t0; fused on or other part: Humanized anti-VEGF-A VH domain joined N-terminally to the IGHG1 constant region (engineered, no UniProt entry)
Summary of the method: (§1)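 About 30 μl packed resin columns loaded with 3.3 cv IgG at 0.5 mg ml^−1 in PBS or undiluted HCP, washed with 5 cv PBS, eluted with 5 cv glycine pH 2.5. Protein in fractions by Bradford. Bound fraction = (injected − flowthrough)/injected; yield = eluted/injected; selectivity = Bevacizumab bound fraction / HCP bound fraction, truncated beyond 10.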

[2] = test system: Tocilizumab; test: Microtiter plate chromatography of resins: binding and elution of Tocilizumab; details: fraction of injected protein bound; 0.5 mg/ml IgG in PBS pH 7.3
Summary of the method: (§2)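 About 30 μl resin columns loaded with 3.3 cv IgG at 0.5 mg ml^−1 in PBS (or undiluted HCP), washed with 5 cv PBS, eluted with 5 cv glycine pH 2.5. Fractions quantified by Bradford; bound fraction = (mi−mft)/mi, yield = me/mi.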

[3] = test system: Palivizumab; test: Microtiter plate chromatography of resins: binding and elution of Palivizumab; details: fraction of injected protein bound; 0.5 mg/ml IgG in PBS pH 7.3
Summary of the method: as §2

[4] = test system: Cetuximab; test: Microtiter plate chromatography of resins: binding and elution of Cetuximab; details: fraction of injected protein bound; 0.5 mg/ml IgG in PBS pH 7.3
Summary of the method: as §2

[5] = test system: poly-IgG from human serum (h-poly-IgG); test: Microtiter plate chromatography of resins: binding and elution of human poly-IgG; details: fraction of injected protein bound; 0.5 mg/ml IgG in PBS pH 7.3
Summary of the method: as §2

[6] = test system: host cell proteins (HCP); test: Microtiter plate chromatography of resins: binding of host cell proteins; design: species or system CHO cell culture; details: fraction of injected undiluted host cell proteins bound
Summary of the method: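 Undiluted HCP-containing flowthrough from protein A chromatography of CHO serum-free culture was loaded onto ~30 µl packed resin columns in microtiter-plate format. Columns were washed with 5 cv PBS and eluted with glycine pH 2.5, and fractions were quantified by Bradford. Bound fraction = (injected − flowthrough mass)/injected mass.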

[7] = target: T1, Bevacizumab; test: Langmuir isotherms by batch adsorption; type: binding; details: for Kd: Bevacizumab 0.05-5 mg/ml in PBS pH 7.3, 25° C., at least 3 h, read-out: kd (dissociation constant, Langmuir isotherm) (converted); for qm (maximum capacity): mg Bevacizumab per ml of resin, Langmuir isotherm
Method: Experiments were performed with Bevacizumab as antibody. Parameters of Langmuir isotherms for purified antibody were determined by batch adsorption experiments in 96-well microtiter plates. In each well, 10 μl of sorbent slurry (50% v/v) were mixed with 100 μl of protein solution. Initial concentrations varied from 0.05-5 mg/ml in phosphate-buffered saline (0.15 M NaCl, 20 mM phosphate buffer, pH 7.3; PBS). Reactions were agitated vigorously at 25° C. for at least 3 h. Afterwards, antibody concentration in the supernatants were measured by Bradford assay. Data was evaluated by direct fitting of the values with the Langmuir isotherm equation (1).
Parameters of Langmuir isotherms, i.e. dissociation constants Kd and maximum capacities qm, were determined from the measured concentrations in the supernatants. Parameters were estimated by numerical fitting of the model equation derived by Chase (1)

[8] = target: T1, Bevacizumab; test: Uptake kinetics by batch adsorption (time-scale of binding); details: time after which 80% of equilibrium saturation occurred; 0.75 mg/ml Bevacizumab in PBS, 25° C.
Method: Uptake kinetics was investigated similarly by batch adsorption in 96-well filter plates. Again, 10 μl of sorbent slurry (50% v/v) were mixed with 100 μl of protein solution. […] Reactions were agitated vigorously at 25° C. for up to 80 min. Supernatants were separated rapidly by spinning through filters after 2.5, 5, 10, 20, 40 and 80 minutes and sampled for analysis. Concentrations of the antibody were analyzed by Bradford assay.
For determination of t0.8, measured concentrations in the supernatant were interpolated by fitting of double-exponentials and values of t0.8 were read out from graphs (2).

[9] = Alkaline stability of ligands in 0.5 M sodium hydroxide; type: physicochemical; details: 25° C., 8 days, hydrolysis monitored by LC-MS, read-out: t0.5 (half-life) (converted)
Method: A subset of ligands from Example 1 was tested for its alkaline stability. Ligands were treated with 0.5 M sodium hydroxide at 25° C. for 8 days. Hydrolysis was monitored by LC-MS analysis.

[10] = test system: Bevacizumab; test: Microtiter plate chromatography of resins: binding and elution of Bevacizumab; details: fraction of bound Bevacizumab divided by fraction of bound HCP; truncated for values beyond 10
Summary of the method: as §1

Bevacizumab Bound [1]	Bevacizumab Yield [1]	Tocilizumab Bound [2]	Palivizumab Bound [3]	Cetuximab Bound [4]	h-poly-IgG Bound [5]	Kd [7]	qm (maximum capacity) [7]	t0.8 (time-scale of binding) [8]	half-life [9]	SMILES	HCP Bound [6]	Selectivity [10]
100%	90%	100%	99%	100%	100%	210 µM	40 mg/mL	9.2 min	35 days	Cn1nc(C(=O)Nc2ccc3c(c2)ncn3CCCN)c2ccccc21 [Ligand L01, 1-(3-Amino-1-propyl)-5-[(1-methylindazol-3-yl)carboxamido]benzimidazole]	33%	
100%	101%	100%	91%	100%	100%	324 µM	41 mg/mL		> 41.6 days	Cn1nc(NC(=O)c2ccc3c(c2)ncn3CCCN)c2ccccc21 [Ligand L02, 1-(3-Amino-1-propyl)benzimidazole-5-carboxylic acid N-(1-methyl-3-indazolyl) amide]	28%	
100%	93%	100%	90%	100%	94%	200 µM	38 mg/mL	8.8 min	> 41.6 days	CCc1nnc(NC(=O)c2ccc3c(c2)ncn3CCCN)s1 [Ligand L07, 1-(3-Amino-1-propyl)benzimidazole-5-carboxylic acid N-(2-ethyl-1,3,4-thiadiazol-5-yl) amide]	23%	
100%	98%	100%	97%	100%	97%		37 mg/mL	7.0 min	> 41.6 days	NCCCn1cnc2cc(C(=O)Nc3nncs3)ccc21 [Ligand L13, 1-(3-Amino-1-propyl)benzimidazole-5-carboxylic acid N-(1,3,4-thiadiazol-2-yl) amide]	21%	
100%	100%	100%	89%	100%	92%	212 µM	35 mg/mL		> 41.6 days	Cc1nnc(NC(=O)c2ccc3c(c2)ncn3CCCN)s1 [Ligand L14, 1-(3-Amino-1-propyl)benzimidazole-5-carboxylic acid N-(2-methyl-1,3,4-thiadiazol-5-yl) amide]	16%	
100%	98%	100%	99%	100%	98%	578 µM	42 mg/mL	8.9 min	> 41.6 days	NCCCNc1ccc(C(=O)Nc2nnc(-c3ccco3)s2)cn1 [Ligand L19, 6-[(3-Amino-1-propyl)amino]nicotinic acid N-[5-(2-furyl)-1,3,4-thiadiazol-2-yl]amide]	14%	
100%	107%	100%	100%	100%	100%	122 µM	46 mg/mL	7.7 min	> 41.6 days	NCCCn1cnc2cc(C(=O)Nc3nc(-c4ccccn4)cs3)ccc21 [Ligand L23, 1-(3-Amino-1-propyl)benzimidazole-5-carboxylic acid N-[4-(2-pyridyl)thiazol-2-yl] amide]	13%	
100%	101%	100%	100%	100%	100%	583 µM	42 mg/mL	9.4 min	> 41.6 days	NCCCn1c(=O)[nH]c2cc(C(=O)Nc3nnc(-c4ccco4)s3)ccc21 [Ligand L24, 1-(3-Amino-1-propyl)-2-oxo-2,3-dihydrobenzimidazole-5-carboxylic acid N-[5-(2-furyl)-1,3,4-thiadiazol-2-yl] amide]	12%	
100%	100%	100%	93%	100%	94%	358 µM	40 mg/mL	9.3 min	37.6 days	NCCCn1cnc2cc(NC(=O)c3cn4ccsc4n3)ccc21 [Ligand L30, 1-(3-Amino-1-propyl)-5-[(imidazo-[2,1-b]thiazol-6-yl)carboxamido]benzimidazole]	21%	
100%	104%	90%	93%	99%	81%	740 µM	35 mg/mL		> 41.6 days	Cc1nsc(NC(=O)c2ccc3c(c2)ncn3CCCN)n1 [Ligand L36, 1-(3-Amino-1-propyl)benzimidazole-5-carboxylic acid N-(3-methyl-1,2,4-thiadiazol-5-yl) amide]	9%	
100%	93%	100%	100%	100%	100%				> 41.6 days	COc1nc2cc(C(=O)Nc3nnc(-c4ccco4)s3)ccc2n1CCCN [Ligand L45, 1-(3-Amino-1-propyl)-2-methoxybenzimidazole-5-carboxylic acid N-[5-(2-furyl)-1,3,4-thiadiazol-2-yl] amide]	15%	6.7

SMILES	Bevacizumab Bound [1]	Bevacizumab Yield [1]	Tocilizumab Bound [2]	Palivizumab Bound [3]	Cetuximab Bound [4]	h-poly-IgG Bound [5]	Kd [7]	qm (maximum capacity) [7]	t0.8 (time-scale of binding) [8]	half-life [9]	HCP Bound [6]	Selectivity [10]
COc1ccc(NC(=O)c2nn(CCCN)c3ccccc23)cc1C(N)=O [Ligand L04, 1-(3-Amino-1-propyl)indazole-3-carboxylic acid N-(3-carbamoyl-4-methoxyphenyl) amide]	100%	98%	100%	85%	100%	100%				> 41.6 days	28%	3.6
